By cell viability is commonly meant the share of living cells, or the viability signal relative to a control. A word on the IC50: it is the midpoint of a concentration-inhibition curve.

Results on 8 compounds are retold here after publication PMC5905287, “Synthesis and in vitro biochemical evaluation of oxime bond-linked daunorubicin–GnRH-III conjugates developed for targeted drug delivery” (Beilstein Journal of Organic Chemistry, 2018).

Read-outs that look alike come from different tables or passages of the source. Non-standard residues stand in square brackets, D forms with d. Residues, ends and D or L forms follow the SMILES beside them. *: point of attachment. Daunorubicin(13-NOCH2CO) = COc1cccc2c1C(=O)c1c(O)c3c(c(O)c1C2=O)C[C@@](O)(C(C)=NOCC(=O)*)C[C@@H]3O[C@H]1C[C@H](N)[C@H](O)[C@H](C)O1; pGlu = O=C1CC[C@@H](C(=O)O)N1; Butyryl = CCCC(=O)*

Data set [1] deals with HT-29 human colon cancer cell line. Briefly: In vitro cytostatic effect, alamarBlue assay, HT-29. Type of data set: cell-based. The note with it: HT-29, 10 µM. The source says: (§1) Cell lines often function as the first model system of choice to study biological processes or to test the efficiency of drugs or drug conjugates and their cytotoxic effects. Immortal cell lines offer various benefits, for instance they are easy to handle, cost-effective and provide consistent sample and reproducible results. Nevertheless, cell lines also present the disadvantage that after a period of continuous growth, cell characteristics can change and dedifferentiate in culture. The serial passaging can cause genotypic and phenotypic variations and the state of confluency can also affect gene expression pattern in some cell lines. Due to this, the usage of internal standards during the evaluation of new potential candidates might be necessary to ensure comparability with previous results. The cytostatic effect of the novel GnRH-III bioconjugates was determined on HT-29 human colon cancer and MCF-7 human breast cancer cell lines by alamarBlue® assay. For a better comparison, the well-studied bioconjugates GnRH-III–[^8Lys(Dau=Aoa)] (K1) and GnRH-III–[^4Lys(Bu), ^8Lys(Dau=Aoa)] (K2) were used as positive controls and internal standards. The corresponding IC50 values were calculated by using nonlinear regression (sigmoidal dose response) (Figure 3, Table 2). Unfortunately, the D-Trp containing compounds 3 and 6 started to precipitate in both cell culture media at higher concentrations limiting the concentration down to a maximum of 10 µM. This effect could not be prevented by using DMSO instead of ddH2O for the preparation of the stock solutions. Unfortunately, the lower concentration range with a maximum of 10 µM was not sufficient to achieve the dose-response. […] Nevertheless, the replacement of ^6Asp by D-Asp, D-Glu or D-Trp led to a decreased cytostatic effect on the estimated cancer cell lines.
(§2) MCF-7 human breast adenocarcinoma cells were cultured in Dulbecco’s Modified Eagle Medium (DMEM, Lonza, Basel, Switzerland), supplemented with 10% (v/v) fetal bovine serum (FBS, Lonza), L-glutamine (2 mM, Lonza), non-essential amino acids (NEAA, Sigma-Aldrich Kft), sodium pyruvate (1 mM, Lonza) and penicillin-streptomycine (Lonza). […]
(§3) Cells were seeded to 96-well plates (Sarstedt, Nümbrecht, Germany, 5 × 10^3 cells/well) one day prior to the treatment in complete cell medium. […] Fluorescence was detected using Synergy H4 multi-mode microplate reader (BioTek, Winooski, VT, USA), excitation and emission wavelengths were set to 570 and 620 nm, respectively. Cytostasis was measured using 4 parallels, each experiment was repeated twice. Cytostatic effect (and IC50 values) were calculated by using nonlinear regression (sigmoidal dose response) with Origin Pro8 (OriginLab Corp., Northampton, MA, USA.).
Background: The colour change of resazurin is a common sign of viable cells or microbes.

For data set [2], the system named is MCF-7 human breast cancer cell line. As to the kind of experiment: In vitro cytostatic effect, alamarBlue assay, MCF-7. Type of data set: cell-based. As to conditions: MCF-7, 10 µM.
From the text: as §1, §2, §3

Data set [3] can be described thus: Degradation in rat liver lysosomal homogenate (LC-MS). As to conditions: rat liver lysosomal homogenate, 37 °C, pH 5. Type of data set: in vitro ADME. The procedure: In order to gain insight into the cellular release of the drug, the degradation of the Dau–GnRH-III derivatives 1–6, K1 and K2 was determined in the presence of rat liver lysosomal homogenate at 37 °C. […] However, the degradation level and the cleavage sites within the GnRH-III sequence differ considerably depending on the incorporated amino acids, whereby the hydrolyses of the C-terminus (H-Gly-NH2 and H-Pro-Gly-NH2) occurred first in all eight GnRH-III derivatives. Due to the high chemical and enzymatic stability of the oxime bond, no free Dau was detected by LC–MS. In accordance with our previous results, the digestion of the two peptides containing L-Asp in position 6 (K1, K2) provided the smallest Dau-containing metabolite (H-Lys(Dau=Aoa)-OH, m/z 729.36 [M + H]^+). This metabolite could already be detected after 1 hour of incubation in case of K2 and after 2 hours in case of K1. […] It might be assumed that D-Trp of GnRH-III–[^4Lys(Bu), ^6D-Tpr, ^8Lys(Dau=Aoa)] (6) is also accepted at the cleavage site, but due to the prior hydrolysis of the ^7Trp-^8Lys(Dau=Aoa)-bond an evidential fragment has not been detected. A reason for these diversities might be the subsite specificities of the lysosomal proteases. For instance, lysosomal cysteine proteases also known as cathepsins show a broad substrate specificity. […] For instance, the analyzed fragments of the ^6L-Asp derivatives gave clear hints for the presence of endopeptidases, while the digestion of the ^6D-Aaa compounds 1–3 gave only fragments which evidence the activity of exomono- and/or dipeptidases. Moreover, the obtained results for the bioconjugates that contain ^4Lys(Bu) (K2, 4–6) instead of serine indicate a proteolytic cleavage by lysosomal endopeptidases, which might be of great importance for the release of the smallest Dau-containing metabolite.
The rat liver lysosomal homogenate was prepared as previously described. The protein concentration was determined by Qubit Protein Assay Kit according to the manufacturer’s protocol (ThermoFisher Scientific, Waltham, MA, USA). The bioconjugates were dissolved in ddH2O to a concentration of 5 µg/µL. The reaction was carried out in 0.2 M NaOAc buffer (pH 5), with an identical concentration of bioconjugate and rat liver lysosomal homogenate (0.25 µg/µL). The reaction mixtures were incubated at 37 °C and aliquots of 15 µL were taken at 5 min, 1 h, 2 h, 4 h, 8 h and 24 h and quenched with 2 µL of acetic acid. The analysis of the samples was performed by LC–MS.

Data set [4] deals with T1, GnRH-RI (Homo sapiens, UniProt P30968).
T1 sequence (P30968 1-328): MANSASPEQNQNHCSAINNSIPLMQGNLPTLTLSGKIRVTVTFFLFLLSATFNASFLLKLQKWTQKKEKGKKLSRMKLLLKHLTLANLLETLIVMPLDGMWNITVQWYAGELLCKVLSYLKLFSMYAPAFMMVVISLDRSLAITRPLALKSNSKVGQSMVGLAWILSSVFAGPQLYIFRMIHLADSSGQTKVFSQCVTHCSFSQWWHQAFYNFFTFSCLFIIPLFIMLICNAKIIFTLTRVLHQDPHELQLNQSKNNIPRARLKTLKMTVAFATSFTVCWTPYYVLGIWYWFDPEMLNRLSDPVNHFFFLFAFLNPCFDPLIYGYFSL
Set-up: human prostate cancer cells were obtained from a patient at the time of initial surgical treatment; from tissue; host or cells: human prostate cancer specimen from a patient (surgery); membrane homogenate; method as in PMID 22967796, PMID 25908176. As to conditions: human prostate cancer tissue; ref [29],[50]; read-out: IC50 prostate cancer (reported values); cited from earlier work.

For data set [5], the target named is T1, GnRH-RI. Set-up: method as in PMID 22967796, PMID 25908176. The note with it: human pituitary tissue; ref [29],[50]; read-out: IC50 pituitary (reported values); cited from earlier work.
In another data set the test system is GnRH-receptor. Also on record: method as in PMID 10647698, PMID 20859992. The note with it: 1 pM to 1 µM; ref [51]–[52]; cited from earlier work.
The subject of a further data set is trypsin. Also on record: method as in PMID 20953647, PMID 21668011. As to conditions: 37 °C; ref [26],[38]; cited from earlier work.
On the set-up of data set [6]: method as in PMID 20953647, PMID 21668011. As to conditions: 90% human serum, 37 °C; ref [26],[38]; cited from earlier work.

`CCCC(=O)NCCCC[C@H](NC(=O)[C@H](Cc1c[nH]c2ccccc12)NC(=O)[C@H](Cc1c[nH]cn1)NC(=O)[C@@H]1CCC(=O)N1)C(=O)N[C@@H](Cc1c[nH]cn1)C(=O)N[C@H](Cc1c[nH]c2ccccc12)C(=O)N[C@@H](Cc1c[nH]c2ccccc12)C(=O)N[C@@H](CCCCNC(=O)CON=C(C)[C@]1(O)Cc2c(O)c3c(c(O)c2[C@@H](O[C@H]2C[C@H](N)[C@H](O)[C@H](C)O2)C1)C(=O)c1c(OC)cccc1C3=O)C(=O)N1CCC[C@H]1C(=O)NCC(N)=O` [compound 6, GnRH-III–[^4Lys(Bu), ^6D-Tpr, ^8Lys(Dau=Aoa)]] ([pGlu]HWK(Butyryl)H[dW]WK(Daunorubicin(13-NOCH2CO))PG-NH2): the “cell viability at the highest concentration” value in data set [1] is recorded as 55%; in data set [2], 53%. Also, in data set [3], the “incubation time after which the smallest Dau-containing metabolite H-Lys(Dau=Aoa)-OH was detected” value is listed as 2 h. As for “GnRH-II–[D-Lys^6(Dau=Aoa)] (QHWSHKWYPG; N-terminal pyroglutamate (from Gln1); D-Lys at position 6, with daunorubicin oxime-linked through aminooxyacetyl on its epsilon-amine (Dau=Aoa); C-terminal amide; Decapeptide limits by convention (mat) [earlier reported daunorubicin–GnRH-II conjugate]”, the IC50 in the data set with GnRH-RI [4] was 2.1 nM; with GnRH-RI [5], 4.2 nM.

For somatostatin-14, the “displacement of [125I]-triptorelin” value in the data set with GnRH-receptor is on record as “could not inhibit the receptor binding”.

For the compound cetrorelix, the “displacement of [125I]-triptorelin” value with GnRH-receptor was “displaced [^125I]-triptorelin completely”.

With GnRH-III–[^4Lys(Ac), ^8Lys(Dau=Aoa)], the “time stable in trypsin” value in the data set on trypsin is listed as “at least 24 h”. Further, the “time stable in human serum” value in data set [6] is recorded as “at least 24 h”. Take bombesin: the “displacement of [125I]-triptorelin” value in the data set with GnRH-receptor is “could not inhibit the receptor binding”. Turning to `COc1cccc2c1C(=O)c1c(O)c3c(c(O)c1C2=O)C[C@@](O)(C(C)=NOCC(=O)NCCCC[C@H](NC(=O)[C@H](Cc1c[nH]c2ccccc12)NC(=O)[C@@H](Cc1c[nH]c2ccccc12)NC(=O)[C@H](Cc1c[nH]cn1)NC(=O)[C@H](CO)NC(=O)[C@H](Cc1c[nH]c2ccccc12)NC(=O)[C@H](Cc1c[nH]cn1)NC(=O)[C@@H]1CCC(=O)N1)C(=O)N1CCC[C@H]1C(=O)NCC(N)=O)C[C@@H]3O[C@H]1C[C@H](N)[C@H](O)[C@H](C)O1` [compound 3, [6D-Trp, 8Lys(Dau=Aoa)]] ([pGlu]HWSH[dW]WK(Daunorubicin(13-NOCH2CO))PG-NH2), the “cell viability at the highest concentration” value is listed as 58% in data set [1] and 69% in data set [2]. Besides, the “incubation time after which the smallest Dau-containing metabolite H-Lys(Dau=Aoa)-OH was detected” value in data set [3] is recorded as 4 h. For the compound buserelin, the “displacement of [125I]-triptorelin” value in the data set on GnRH-receptor was “displaced [^125I]-triptorelin completely”.
